Data reported in patent US20110257206A1, “Combinations of Therapeutic Agents for Treating Cancer” (priority 2006, published 2011).

Experiments:
A549 = experiment: Combination dose-matrix cell viability assay (CellTiter-Blue / alamar blue), synergy versus Loewe additivity, A549; format: cell-based; conditions: combination with Epothilone B; A549 cells; 72 hours; volume between measured and Loewe additive response surfaces; positive = synergistic
Procedure: The following Examples illustrate the combinations with epothilone B that show a syngeristic effect. All combinations were tested in three (3) distinct cell lines as part of this collaboration: A549, a model of non-small cell lung carcinoma; SKOV-3, a model of ovarian cancer; and SKMEL-28, a model of malignant melanoma.
Cells were cultured in T-175 flasks in complete medium (RPMI-1640, 10% FBS, 1% Penn/Strep) at 37° C. and 5% CO2. Cells were removed from the flask by brief treatment with 0.25% trypsin. Trypsin was inactivated with media and cell count was adjusted appropriately. Cells were then seeded into 384-well microtiter plates (35 μL) at 1500 (A549) or 3,000 (SKOV-3, SKMEL-28) cells/well using a multi-drop 16-24 hours prior to compound addition for general screening. […]
A solution of 5% CellTiter-Blue (Promega) viability dye in complete medium was dispensed to assay plates using a multi-drop or 384-well pipettor. […] Plates were allowed to cool to room temperature for one hour before reading fluorescence intensity at 590 nm after excitation at 540 nm in a Wallac Victor-V plate reader.
The measure of effect was the inhibition of cell viability using an alamar blue viability assay relative to the untreated level (vehicle alone). For untreated and treated levels U and T, a fractional inhibition I=1−T/U was calculated. […]

SKMEL28 = experiment: Combination dose-matrix cell viability assay (CellTiter-Blue / alamar blue), synergy versus Loewe additivity, SKMEL-28; format: cell-based; conditions: combination with Epothilone B; SKMEL28 cells; 72 hours; volume between measured and Loewe additive response surfaces; positive = synergistic
Text: The inhibition ranges from 0% at the untreated level to 100% when T=0.
This effectively calculates a volume between the measured and Loewe additive response surfaces, weighted towards high inhibition and corrected for varying dilution factors.

Row | Molecule | Synergy Score (A549) | Synergy Score (SKMEL28)
1 | O=C1C(SCCO)=C(SCCO)C(=O)c2ccccc21 [1,4-Naphthalenedione, 2,3-bis[(2-hydroxyethyl)thio]-(9CI)] | 1.233 | –
2 | Nc1nc(Cl)nc2c1ncn2C1CC(O)C(CO)O1 (stereo not drawn) [5-(6-amino-2-chloro-purin-9-yl)-2-(hydroxymethyl)oxolan-3-ol] | – | 0.999
3 | Butanedinitrile, bis[amino[(2-aminophenyl)thio]methylene]- (9CI) | 1.199 | –
